Here are results for seven compounds from patent publication US9663523B2, “BET protein-inhibiting 5-aryltriazoleazepines” (BAYER PHARMA AKTIENGESELLSCHAFT, priority 2012, dated 2017).

pIC50: −log10 of the molar value.

For assay [1], the target named is BRD4(1) (amino acids 44-168) (Homo sapiens (Human), UniProt O60885). Put plainly: BRD4 binding strength, TR-FRET (HTRF) assay of BRD4(1) / acetylated histone H4 peptide interaction. As to conditions: inhibition of BRD4(1)/Ac-H4 peptide interaction. For orientation: TR-FRET usually uses a lanthanide donor and a delayed reading to cut background.
Assay [2] concerns LAPC-4 cells. The experiment in a line: Cell proliferation (alamarBlue), LAPC-4. It counts as cell-based. As to conditions: Homo sapiens, LAPC4; prostate carcinoma (androgen receptor-positive) cell line, 168 hours incubation. (In general: Alamar Blue is a resazurin reagent that responds to reducing activity.)
The subject of assay [3] is MDA-MB-231 cells. Put plainly: Cell proliferation (alamarBlue), MDA-MB-231. Format: cell-based. The following applies: Homo sapiens, mammary carcinoma cell line, 96 hours incubation. The procedure: The ability of the compounds according to the invention to inhibit the proliferation of various cell lines was determined.
Cell viability was determined by means of the alamarBlue® reagent (Invitrogen). The cells were sown at different densities (MOLM-13, LAPC-4, MOLP-8 and MDA-MB-231: 4000 cells/well; B16F10: 400 cells/well) in 100 μl of growth medium on 96-well microtitre plates. After overnight incubation at 37° C., the fluorescence values (CI values) were determined. The plates were then treated with various substance dilutions and incubated at 37° C. for 96 hours (MOLM-13, MDA-MB-231 and B16F10 cells), 120 hours (MOLP-8 cells) or 168 hours (LAPC-4 cells). Subsequently, the fluorescence values were determined (CO values). For the data analysis, the CI values were subtracted from the CO values and the results were compared between cells which had been treated with various dilutions of the substance or only with buffer solution.
The compounds according to the invention were tested in the cell lines in Table 2, which represent the indications specified by way of example:
The indications corresponding to the different cell lines can be found in Table 2.

Assay [4] relates to MOLM-13 cells. The experiment in a line: Cell proliferation (alamarBlue), MOLM-13. It counts as cell-based. The following applies: Homo sapiens, acute myeloid leukaemia cell line, 96 hours incubation. Put shortly: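 Cells seeded at 4000/well, fluorescence read after overnight at 37° C, then compound-treated for 96 h (MOLM-13, MDA-MB-231), 120 h (MOLP-8) or 168 h (LAPC-4). AlamarBlue fluorescence at start subtracted from end value and compared with buffer-treated cells.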

Assay [5] relates to B16F10 cells. The experiment in a line: Cell proliferation (alamarBlue), B16F10. Format: cell-based. As to conditions: Mus musculus, B16-F10; melanoma cell line, 96 hours incubation. Put shortly: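 Mouse B16F10 cells were plated at 400 cells/well in 100 μl of growth medium in 96-well microtitre plates and incubated overnight at 37° C. Initial fluorescence (CI) was then read with alamarBlue® reagent. Cells were exposed to serial compound dilutions for 96 hours at 37° C before final fluorescence (CO) was read. CI was subtracted from CO and compared with buffer-treated controls.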

The subject of assay [6] is MOLP-8 cells. Put plainly: Cell proliferation (alamarBlue), MOLP-8. Format: cell-based. As to conditions: Homo sapiens, multiple myeloma cell line, 120 hours incubation.

Usually pIC50 stands for −log10 of the IC50, conventionally taken in molar units. Read a high pIC50 as a low IC50. As for `Cc1nnc2n1-c1ccccc1C(c1ccc(Cl)cc1)=C[C@H]2CC(=O)N1CCC2(CCCC2)CC1` [Example 29, (−)-1-(8-azaspiro[4.5]dec-8-yl)-2-[(4R)-6-(4-chlorophenyl)-1-methyl-4H-[1,2,4]triazolo[4,3-a][1]benzazepin-4-yl]ethanone], the pIC50 in assay [1] was 5.74; in assay [2] it was 6.17; in assay [3], 5.33; in assay [4], 5.53; in assay [5], 5.67; in assay [6], 5.78.

In the case of `Cc1nnc2n1-c1ccccc1C(c1ccc(Cl)cc1)=CC2CC(=O)N1CC2(COC2)C1` (stereo in doubt) [Example 4, (−)-2-[(4R)-6-(4-chlorophenyl)-1-methyl-4H-[1,2,4]triazolo[4,3-a][1]benzazepin-4-yl]-1-(2-oxa-6-azaspiro[3.3]hept-6-yl)ethanone], the pIC50 in assay [1] is 6.89; in assay [2], 6.18; in assay [3] it was 5.63; in assay [4] it was 6.44; in assay [5], 6.26; in assay [6], 6.13.

As for `Cc1nnc2n1-c1ccccc1C(c1ccc(Cl)cc1)=CC2CC(=O)N1CCC2(CCCC2)CC1` (stereo not drawn) [Example 28, 1-(8-azaspiro[4.5]dec-8-yl)-2-[6-(4-chlorophenyl)-1-methyl-4H-[1,2,4]triazolo[4,3-a][1]benzazepin-4-yl]ethanone], the pIC50 is 5.85 in assay [1]; 5.92 in assay [2]; less than 5.00 in assay [3]; less than 5.00 in assay [4]; 5.15 in assay [5]; 5.20 in assay [6].

In the case of `Cc1noc(C[C@H]2C=C(c3ccc(Cl)cc3)c3ccccc3-n3c(C)nnc32)n1` [Example 35, (−)-6-[(4R)-4-chlorophenyl]-1-methyl-4-[(3-methyl-1,2,4-oxadiazol-5-yl)methyl]-4H-[1,2,4]triazolo[4,3-a][1]benzazepine], the pIC50 in assay [1] is 7.52; in assay [2] it was 7.10; in assay [3], 6.68; in assay [4], 6.80; in assay [5] it was 6.82; in assay [6] it was 6.89.

Take `Cc1nnc2n1-c1ccccc1C(c1ccc(Cl)cc1)=C[C@H]2CC(=O)N1CC(Oc2ccccc2)C1` [Example 25, (−)-2-[(4R)-6-(4-chlorophenyl)-1-methyl-4H-[1,2,4]triazolo[4,3-a][1]benzazepin-4-yl]-1-(3-phenoxyazetidin-1-yl)ethanone]: the pIC50 in assay [1] is 5.85; in assay [2] it was 6.77; in assay [3], 5.88; in assay [4], 5.95; in assay [5], 6.31; in assay [6] it was 6.23.

`Cc1nnc(CC2C=C(c3ccc(Cl)cc3)c3ccccc3-n3c(C)nnc32)o1` (stereo in doubt) [Example 38, (−)-(4R)-6-(4-chlorophenyl)-1-methyl-4-[(5-methyl-1,3,4-oxadiazol-2-yl)methyl]-4H-[1,2,4]triazolo[4,3-a][1]benzazepine]: the pIC50 was 7.70 in assay [1]; 7.40 in assay [2]; 6.96 in assay [3]; 6.92 in assay [4]; 7.22 in assay [5]; 7.35 in assay [6].

With `Cc1nnc2n1-c1ccccc1C(c1ccc(Cl)cc1)=CC2CC(=O)N1CCC(=O)C1` (stereo not drawn) [Example 26, 1-{[6-(4-chlorophenyl)-1-methyl-4H-[1,2,4]triazolo[4,3-a][1]benzazepin-4-yl]acetyl}pyrrolidin-3-one], the pIC50 is 7.40 in assay [1]; 6.51 in assay [2]; 5.87 in assay [3]; 6.08 in assay [4]; 6.21 in assay [5]; 6.42 in assay [6].
